Test results reported in patent US20260364080A1, “PYRAZOLO-PYRIMIDINONE COMPOUNDS FOR USE IN METHODS OF INHIBITING WEE1 A KINASE” (Acrivon Therapeutics, Inc., priority 2023, published 2026).

What was measured:
[1] = target: T1, recombinant human Wee1A kinase (Homo sapiens, UniProt P30291); assay: Wee1A kinase binding assay (LanthaScreen Eu time-resolved FRET); conditions: 30 nM tracer 178, 5 nM Wee1A kinase, 2 nM Eu-labeled antibody; 60 minutes at room temperature; read-out: Wee1A kinase Binding IC50
T1 construct: full length Wee1 kinase was expressed by baculovirus in insect cells; purchased Invitrogen PV3817; host or cells: insect cells (baculovirus)
Outline: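 Full-length, baculovirus-expressed GST-tagged Wee1A (5 nM) was mixed with 2 nM Eu-anti-GST antibody, 30 nM kinase tracer 178 and compound (1% DMSO). Buffer was 50 mM HEPES pH 7.5, 10 mM MgCl2, 1 mM EGTA, 0.01% Brij-35, incubated 60 min at room temperature. TR-FRET 665/615 nm emission ratios from duplicates were curve-fitted.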

[2] = target: T2, Myt1 kinase (recombinant PMYT-1) (Homo sapiens, UniProt Q99640); assay: Myt1 kinase binding assay (LanthaScreen Eu Kinase Binding Assay); conditions: 3 nM tracer 178, 2.5 nM PMYT-1, 1 nM Eu-labeled antibody; read-out: Myt1 kinase Binding IC50
T2 construct: full length PMYT-1 was expressed by baculovirus in insect cells; purchased Invitrogen A30984; host or cells: insect cells (baculovirus)
T2 sequence (Q99640 1-499): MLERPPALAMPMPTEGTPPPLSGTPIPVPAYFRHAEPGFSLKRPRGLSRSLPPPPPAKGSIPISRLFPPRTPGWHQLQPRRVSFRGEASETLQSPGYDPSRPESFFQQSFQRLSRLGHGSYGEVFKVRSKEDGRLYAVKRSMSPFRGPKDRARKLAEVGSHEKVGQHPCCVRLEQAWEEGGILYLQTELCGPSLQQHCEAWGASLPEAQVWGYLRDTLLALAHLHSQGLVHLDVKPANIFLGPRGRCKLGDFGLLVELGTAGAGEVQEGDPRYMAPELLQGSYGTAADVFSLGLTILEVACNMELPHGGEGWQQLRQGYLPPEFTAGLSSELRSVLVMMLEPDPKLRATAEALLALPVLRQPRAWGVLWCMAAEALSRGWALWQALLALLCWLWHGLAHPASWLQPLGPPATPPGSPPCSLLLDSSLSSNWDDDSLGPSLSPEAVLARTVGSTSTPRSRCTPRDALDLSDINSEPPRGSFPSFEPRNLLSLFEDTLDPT
Outline: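 The binding affinity of compounds for Myt1 kinase was measured with a LanthaScreen Europium (Eu) Kinase Binding Assay, a time-resolved FRET format in which test compounds compete against a labeled kinase tracer, and the results were expressed as IC50 values describing compound binding to Myt1.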

[3] = target: T3, Myt1 kinase (CDK1 Thr14 phosphorylation in ACHN renal cell carcinoma cells) (Homo sapiens, UniProt Q99640); assay: AlphaLISA assay, Myt1 kinase target engagement (phospho-CDK1 Thr14) in ACHN cells; assay type: cell-based; conditions: ACHN cells (marked *); 4 h treatment
T3 construct: pCDK1 Thr14 AlphaLISA read-out
T3 sequence (Q99640 1-499): T2 sequence (Q99640 1-499)
Outline: (§1)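 Cells seeded at 10,000 (DAOY) or 20,000 (ACHN) per well, treated 24 h later for 4 h with compound at 7–5000 nM. Lysates analysed by AlphaLISA SureFire Ultra phospho-CDK1 (Thr14) with donor/acceptor beads; EC50 from dose-response curves.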

[4] = target: T4, Wee1A kinase (CDK1 Tyr15 phosphorylation in ACHN renal cell carcinoma cells) (Homo sapiens, UniProt P30291); assay: High-content imaging of pCdk1 Y15, Wee1A kinase target engagement in ACHN cells; assay type: cell-based; conditions: 4 h treatment, nuclear positivity for pCdk1 Y15 vs DMSO control, read-out: CDK1 Tyr15 Phosphorylation EC50
T4 construct: pCDK1 Tyr15 immunofluorescence read-out
Outline: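 ACHN cells exposed to compound for 4 h over 7–5,000 nM or 0.3–200 nM, then fixed and immunostained for pCDK1 Y15 with DAPI nuclear counterstain. The percentage of pCdk1 Y15 nucleus-positive cells relative to DMSO control was imaged per well; EC50 from dose-response curves.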

ACHN cells = assay: Cell Titer Glo viability assay, ACHN cells; assay type: cell-based; conditions: Homo sapiens, 144 h, absolute EC50
Outline: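 Cells grown in MEM with 10% FCS were seeded at 500 (A427), 400 (ACHN) or 250 (DAOY) per well and treated the next day with compound at 17 to 10 000 nM. Viability relative to untreated control was read at 144 h by CellTiter-Glo 2.0.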

DAOY cells = assay: Cell Titer Glo viability assay, DAOY cells; assay type: cell-based; conditions: Homo sapiens, 144 h, absolute EC50
Description: (§2) Each of an ACHN renal cell carcinoma cell line (ATCC) and a DAOY medulloblastoma cell line, and an A427 lung cancer line were cultured in Minimum Essential Medium Eagle supplemented with 10% fetal calf serum (Sigma), 1% Penicillin-Streptomycin and 10 mM HEPES buffer (HyClone). Cell cultures were kept in a humidified incubator at 37 °C and 5% CO2. Cells were routinely tested for Mycoplasma contamination.
(§3) ACHN cells, DAOY cells, or A427 cells were seeded at a density of 400, 250, or 500 cells per well respectively, in tissue culture treated 384 well plates (Corning Costar). After overnight incubation, cells were treated with drugs at concentrations ranging from 17 to 10 000 nM. Viability compared to untreated control was assessed at 144 h using Cell Titer Glo assay 2.0 (Promega). […] “NT” means the compounds was not tested in the indicated cells.

A427 cells = assay: Cell Titer Glo viability assay, A427 cells; assay type: cell-based; conditions: Homo sapiens, A-427, 144 h, absolute EC50
Description: as §2, §3

uterine serous carcinoma = conditions: phase II study, women with uterine serous carcinoma; cited from earlier work
[5] = system: RAS/TP53 mutated metastatic colorectal cancer; conditions: cited from earlier work
[6] = target: T5, Myt1 kinase (CDK1 Thr14 phosphorylation in DAOY medulloblastoma cells) (Homo sapiens, UniProt Q99640); assay: AlphaLISA assay, Myt1 kinase target engagement (phospho-CDK1 Thr14) in DAOY cells; assay type: cell-based; conditions: 4 h treatment, read-out: CDK1 Thr14 Phosphorylation EC50
T5 construct: pCDK1 Thr14 AlphaLISA read-out
T5 sequence (Q99640 1-499): T2 sequence (Q99640 1-499)
Outline: as §1

T1 sequence (P30291 whole entry): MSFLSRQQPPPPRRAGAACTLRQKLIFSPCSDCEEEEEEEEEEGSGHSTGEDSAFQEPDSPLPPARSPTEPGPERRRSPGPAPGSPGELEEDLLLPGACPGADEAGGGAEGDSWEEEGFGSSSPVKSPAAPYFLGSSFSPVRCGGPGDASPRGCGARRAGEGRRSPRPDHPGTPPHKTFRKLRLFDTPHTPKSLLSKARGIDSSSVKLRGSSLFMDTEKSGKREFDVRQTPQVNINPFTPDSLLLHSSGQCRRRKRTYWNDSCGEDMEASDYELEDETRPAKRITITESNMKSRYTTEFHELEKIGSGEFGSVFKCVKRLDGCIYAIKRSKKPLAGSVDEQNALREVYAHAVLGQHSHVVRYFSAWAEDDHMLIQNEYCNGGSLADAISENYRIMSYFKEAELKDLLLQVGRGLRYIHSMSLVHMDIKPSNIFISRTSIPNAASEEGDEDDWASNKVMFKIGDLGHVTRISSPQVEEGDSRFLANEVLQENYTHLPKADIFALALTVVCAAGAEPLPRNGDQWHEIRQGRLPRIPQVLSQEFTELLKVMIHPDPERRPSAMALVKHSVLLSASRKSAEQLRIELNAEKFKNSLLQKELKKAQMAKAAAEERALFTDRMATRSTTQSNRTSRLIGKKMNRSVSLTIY
T4 sequence (P30291 whole entry): as above

| SMILES | IC50 [1] [nM] | IC50 [2] [nM] | EC50 [3] [nM] | EC50 [4] [nM] | EC50 (ACHN cells) [nM] | EC50 (DAOY cells) [nM] | EC50 (A427 cells) [nM] | clinical activity (uterine serous carcinoma) | effect compared to active monitoring [5] | EC50 [6] [nM] |
| --- | --- | --- | --- | --- | --- | --- | --- | --- | --- | --- |
| CCn1c(=O)c2cnc(Nc3ccc4c(cnn4C)c3)nc2n1-c1cccc(OC2CCN(C)CC2)n1 [Compound 114, 2-ethyl-6-(1-methyl-1H-indazol-5-ylamino)-1-[6-(1-methyl-4-piperidyloxy)-2-pyridyl]-1,2-dihydro-3H-1,2,5,7-tetraazainden-3-one] | < 10 | 20 to 100 | 500 to 1000 | < 100 | ≤ 100 | ≤ 100 | 100 to 500 | – | – | – |
| C=CCn1c(=O)c2cnc(Nc3ccc(N4CCN(C)CC4)cc3)nc2n1-c1cccc(C(C)(C)O)n1 [AZD1775, adavosertib] | – | – | – | – | – | – | – | promising results | shown effect compared to active monitoring | – |
| C=CCn1c(=O)c2cnc(Nc3ccc(OCCF)cc3)nc2n1-c1cccc(OC2CCNCC2)n1 [Compound 233, 2-allyl-6-((4-(2-fluoroethoxy)phenyl)amino)-1-(6-(piperidin-4-yloxy)pyridin-2-yl)-1,2-dihydro-3H-pyrazolo[3,4-d]pyrimidin-3-one] | < 10 | 20 to 100 | – | < 100 | ≤ 100 | ≤ 100 | ≤ 100 | – | – | 200 to 500 |
| C=CCn1c(=O)c2cnc(Nc3ccc(Cl)cc3)nc2n1-c1cccc(OC2CCN(C)CC2)n1 [Compound 142, 2-allyl-6-((4-chlorophenyl)amino)-1-(6-((1-methylpiperidin-4-yl)oxy)pyridin-2-yl)-1,2-dihydro-3H-pyrazolo[3,4-d]pyrimidin-3-one] | < 10 | < 20 | – | < 100 | ≤ 100 | 100 to 500 | 100 to 500 | – | – | 200 to 500 |
| C=CCn1c(=O)c2cnc(Nc3ccc(OCCF)cc3)nc2n1-c1cccc(OC2CCN(C)CC2)n1 [Compound 234, 2-allyl-6-((4-(2-fluoroethoxy)phenyl)amino)-1-(6-((1-methylpiperidin-4-yl)oxy)pyridin-2-yl)-1,2-dihydro-3H-pyrazolo[3,4-d]pyrimidin-3-one] | < 10 | 20 to 100 | – | < 100 | ≤ 100 | ≤ 100 | ≤ 100 | – | – | < 200 |
